molecular target: T1, recombinant PDE7A1 (Homo sapiens, UniProt Q13946); test: Inhibition of PDE7 activity, modified SPA (scintillation proximity assay) test; type: biochemical; settings: recombinant PDE7A1 (1000×g supernatant of SF21 cells), 0.5 μM cAMP, [3H]cAMP SPA, 37° C.; read-out: −log IC50 (inhibition of PDE7 activity) (converted)
T1 construct: made in house; host or cells: SF21 insect cells (baculovirus; virus made in SF9)
From the text: Cloning and expression of PDE7: The cDNAs for PDE7A1 and 7A2 (GenBank Acc-: L12052 and u67932, respectively) were isolated, using RT-PCR, from total cellular RNA derived from the T cell line CCRF-CEM and cloned into the cloning vector pCR2.1 (Invitrogen, Groningen, NL) under standard conditions (the manufacturer's instructions). For expression in insect cells, the cDNAs were subcloned into the baculo expression vector pCRBac (Invitrogen, Groningen, NL).
The recombinant baculoviruses were prepared, by means of homologous recombination in SF9 insect cells, by cotransfecting the plasmids containing baculovirus DNA (wild type, wt) Bac-N-Blue (Invitrogen, Groningen, NL) for PDE7A1 and containing Baculo-Gold DNA (Pharmingen, Hamburg) using a standard protocol (Pharmingen, Hamburg). Wt virus-free recombinant virus supernatants were selected using plaque assay methods. After that, high-titre virus supernatants were prepared by amplifying 3 times. For determining the enzyme activities, the PDEs were expressed in SF21 cells by infecting 2×10^6 cells/ml with an MOI (multiplicity of infection) ≈5 in serum-free SF900 medium (Life Technologies, Paisley, UK) in spinner flasks. The cells were cultured at 28° C., and at a rotationall speed of 75 rpm, for 48 hours, after which they were pelleted for 5-10 min at 1000 g and 4° C. and then resuspended in 1×PBS at a concentration of 1-3×10^6 cells/ml. The protein content was determined by the Bradford method (BioRad, Munich) using BSA as the standard.
The SF21 insect cells are resuspended, at a concentration of approx. 10^7 cells/ml, in ice-cold (4° C.) homogenization buffer (20 mM Tris, pH 8.2, containing the following additions: 140 mM NaCl, 3.8 mM KCl, 1 mM EGTA, 1 mM MgCl2, 1 mM β-mercaptoethanol, 2 mM benzamidine, 0.4 mM Pefablock, 10 μM leupeptin, 10 μM pepstatin A, 5 μM trypsin inhibitor) and disrupted by ultrasonication. The homogenate is then centrifuged for 10 min at 1000×g and the supernatant is stored at −80° C. until subsequent use (see below).
The PDE7 activity was inhibited by said compounds in a modified SPA (scintillation proximity assay) test, supplied by Amersham Pharmacia Biotech (see procedural instructions “Phosphodiesterase [3H]cAMP SPA enzyme assay, code TRKQ 7090”), carried out in 96-well microtitre plates (MTPs). The test volume is 100 μl and contains 20 mM Tris buffer (pH 7.4), 0.1 mg of BSA (bovine serum albumin)/ml, 5 mM Mg^2+, 0.5 μM cAMP (including about 50,000 cpm of [3H]cAMP), 2 μl of the respective substance dilution in DMSO and sufficient recombinant PDE7A1 (1000×g supernatant, see above) to ensure that 15-20% of cAMP is converted under said experimental conditions. After a preincubation of 5 min at 37° C., the reaction is started by adding a substrate (cAMP) and the assays are incubated for a further 15 min; after that, they are stopped by adding SPA beads (50 μl). In accordance with the manufacturer's instructions, the SPA beads had previously been resuspended in water and diluted 1:3 (v/v) and added to IBMX (3 mM). After the beads have been sedimented (>30 min), the MTPs are analyzed in commercially available measuring appliances and the corresponding IC50 values of the compounds for the inhibition of PDE7 activity are determined from concentration-effect curves by means of non-linear regression.
The inhibitory values [inhibitory concentration as −logIC50 (mol/l)] which were determined for the compounds according to the invention are shown in the following table 1, in which the numbers of the compounds correspond to the numbers of the examples.

T1 sequence (Q13946 whole entry): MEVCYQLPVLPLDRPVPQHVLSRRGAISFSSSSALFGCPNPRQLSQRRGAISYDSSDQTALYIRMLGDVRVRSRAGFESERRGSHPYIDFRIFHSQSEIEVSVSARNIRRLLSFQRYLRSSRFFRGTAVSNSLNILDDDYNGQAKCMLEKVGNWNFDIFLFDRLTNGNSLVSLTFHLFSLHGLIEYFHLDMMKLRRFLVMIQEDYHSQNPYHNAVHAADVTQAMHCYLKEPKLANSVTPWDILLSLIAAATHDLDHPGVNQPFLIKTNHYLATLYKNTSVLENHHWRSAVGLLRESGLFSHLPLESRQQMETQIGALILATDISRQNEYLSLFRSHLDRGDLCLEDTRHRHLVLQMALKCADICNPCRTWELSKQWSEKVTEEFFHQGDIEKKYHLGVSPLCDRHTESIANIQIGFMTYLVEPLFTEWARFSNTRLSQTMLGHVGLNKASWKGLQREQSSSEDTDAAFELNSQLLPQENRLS

IC50	SMILES
0.0324 µM	COc1cc(C2=NCCc3ccc(Cl)cc32)ccc1NS(=O)(=O)c1ccc(OC(F)(F)F)cc1 [Compound 1a, 1-[4-(4-Trifluoromethoxybenzenesulfonamido)-3-methoxyphenyl]-7-chloro-3,4-dihydroisoquinoline]
0.123 µM	COc1cc(C2=NCCc3ccc(Cl)cc32)ccc1NS(=O)(=O)c1ccc(C)cc1 [Compound 1b, 1-[4-(4-Methylbenzenesulfonamido)-3-methoxyphenyl]-7-chloro-3,4-dihydroisoquinoline]
0.295 µM	COc1cc(C2=NCCc3ccccc32)ccc1NS(=O)(=O)c1ccc(-c2ccon2)s1 [Compound 2a, 1-[4-(5-(Isoxazol-3-yl)-thiophene-2-sulfonamido)-3-methoxyphenyl]-3,4-dihydroisoquinoline]
0.257 µM	O=S(=O)(Nc1ccc(C2=NCCc3ccc(F)cc32)cc1)c1cccc(C(F)(F)F)c1 [Compound 4c, 1-[4-(3-Trifluoromethylbenzenesulfonamido)phenyl]-7-fluoro-3,4-dihydroisoquinoline]
0.389 µM	O=S(=O)(Nc1ccc(C2=NCCc3ccc(F)cc32)cc1)c1ccc2ccccc2c1 [Compound 4e, 1-[4-(Naphthalene-2-sulfonamido)phenyl]-7-fluoro-3,4-dihydroisoquinoline]
0.245 µM	O=S(=O)(C=Cc1ccccc1)Nc1ccc(C2=NCCc3ccc(Cl)cc32)cc1 [Compound 6h, 1-[4-(2-Phenylethenesulfonamido)phenyl]-7-chloro-3,4-dihydroisoquinoline]
0.38 µM	O=S(=O)(Nc1ccc(C2=NCCc3ccc(Cl)cc32)cc1)c1cc(Br)c(Cl)s1 [Compound 6m, 1-[4-(4-Bromo-5chlorothiophene-2-sulfonamido)phenyl]-7-chloro-3,4-dihydroisoquinoline]
